Experimental data from patent publication US7435433B2, “Process for the isolation of oleane compounds isolated from the bark of arjun tree terminalia arjuna (Roxb.)” (Council of Scientific & Industrial Research, priority 2005, dated 2008).
Converted amounts (≈) assume the structure as drawn. Values belong to the compound of their own block, whether it stands above or below them.

Experiments:
[1] = test system: PA-1 (ovary cancer) cells; assay: In-vitro anticancer MTT assay, PA-1; type: cell-based, human; conditions: 90% inhibition of cell growth vs untreated control, 6 h exposure, then 48 h
Experimental: (§1) The following six human cancer cell lines were procured from the Cell Repository of the National Center for Cell Sciences (NCCS) at Pune. Their corresponding ATCC No. and the organ from which they were isolated are also mentioned in the table described below:
(§2) Cytotoxicity testing in vitro was done by the method of (Woerdenbag et al., 1993; J. Nat. Prod. 56 (6): 849-856). 2×10^3 cells/well were incubated in the 5% CO2 incubator for 24 h to enable them to adhere properly to the 96 well polystyrene microplate (Grenier, Germany). Test compounds dissolved in 100% DMSO in at least five doses were added and left for 6 h after which the compound plus media was replaced with fresh media and the cells were incubated for another 48 h in the CO2 incubator at 37° C.
(§3) Then, 10 μl MTT [3-(4,5-dimethylthiazol-2-yl)-2,5-diphenyltetrazolium bromide; Sigma M 2128] was added, and plates were incubated at 37° C. for 4 h. 100 μl dimethyl sulfoxide (DMSO, Merck, Germany) were added to all wells and mixed thoroughly to dissolve the dark blue crystals. After a few minutes at room temperature to ensure that all crystals were dissolved, the plates were read on a SpectraMax 190 Microplate Elisa reader (Molecular Devices Inc., USA), at 570 nm. Plates were normally read within 1 h of adding the DMSO. The experiment was done in triplicate and the inhibitory concentration (IC) values were calculated as follows: % inhibition=[1-OD (570 nm) of sample well/OD (570 nm) of control well]×100. IC90 is the concentration μg/ml required for 90% inhibition of cell growth as compared to that of untreated control. […] It was also found to be active against breast adenocarcinoma, liver and ovarian cancer cell lines at 20-60 μg/ml.
(§4) IC90: Concentration required to inhibit 90% of cell growth as compared to that of control.

[2] = test system: Caco-2 (colon adenocarcinoma) cells; assay: In-vitro anticancer MTT assay, Caco-2; type: cell-based, human; conditions: for IC90: Homo sapiens, Caco-2, read-out: Inhibitory Concentration (IC90) Caco-2; for Inhibitory Concentration (IC90) Caco-2: MTT assay, 90% inhibition of cell growth vs untreated control, 6 h exposure, then 48 h
Experimental: as §1, §2, §3, §4

[3] = test system: breast adenocarcinoma, liver and ovarian cancer cell lines; assay: In-vitro anticancer MTT assay, summary over three cell lines; type: cell-based; conditions: Homo sapiens, range over three cell lines, read-out: active concentration (IC90) against breast adenocarcinoma, liver and ovarian cancer cell lines
Experimental: as §1, §2
(§5) Then, 10 μl MTT [3-(4,5-dimethylthiazol-2-yl)-2,5-diphenyltetrazolium bromide; Sigma M 2128] was added, and plates were incubated at 37° C. for 4 h. […] After a few minutes at room temperature to ensure that all crystals were dissolved, the plates were read on a SpectraMax 190 Microplate Elisa reader (Molecular Devices Inc., USA), at 570 nm. Plates were normally read within 1 h of adding the DMSO. The experiment was done in triplicate and the inhibitory concentration (IC) values were calculated as follows: % inhibition=[1-OD (570 nm) of sample well/OD (570 nm) of control well]×100. […]

[4] = test system: WRL-68 (liver cancer) cells; assay: In-vitro anticancer MTT assay, WRL-68; type: cell-based; conditions: Homo sapiens, WRL68, 90% inhibition of cell growth vs untreated control, 6 h exposure, then 48 h, read-out: Inhibitory Concentration (IC90) WRL-68
Experimental: as §1, §2, §5

[5] = test system: MCF-7 (breast cancer) cells; assay: In-vitro anticancer MTT assay, MCF-7; type: cell-based, human; conditions: 6 h exposure, then 48 h; for IC90: Homo sapiens, MCF7, 90% inhibition of cell growth vs untreated control, read-out: Inhibitory Concentration (IC90) MCF-7
Experimental: as §1, §2, §3, §4

[6] = test system: BT-20 human breast carcinoma cells; conditions: cited from earlier work
[7] = test system: TA98 and TA100 strains of salmonella typhimurium; conditions: cited from earlier work
Neisseria gonorrhoeae = conditions: cited from earlier work

Compound: CC1(C)CCC2(C(=O)O)CCC3(C)C(=CCC4C5(C)CC(O)C(O)C(C)(C)C5CCC43C)C2C1O (racemic) [Arjunic acid, 2±,3^2,19±-tri-hydroxy-olea-12-en-28-oic acid]
IC90 ([1]; Homo sapiens, read-out: Inhibitory Concentration (IC90) PA-1): 60 µg/mL (≈ 123 µM)
IC90 [2]: 4.5 µg/mL (≈ 9.21 µM)
IC90 [3]: 20 to 60 µg/mL (≈ 40.9 to 123 µM)
IC90 [4]: 20 µg/mL (≈ 40.9 µM)
IC90 [5]: 50 µg/mL (≈ 102 µM)

Compound: CC1(C)CCC2(C(=O)OC3OC(CO)C(O)C(O)C3O)CCC3(C)C(=CCC4C5(C)CC(O)C(O)C(C)(C)C5CCC43C)C2C1O (stereo not drawn) [Arjunetin, arjunetin]
IC90 [2]: 10 µg/mL (≈ 15.4 µM)
IC90 [4]: 20 µg/mL (≈ 30.7 µM)
IC90 [5]: 50 µg/mL (≈ 76.8 µM)

Inhibitory Concentration (IC90) PA-1 [1]: >50 µg/mL
Compound: CC1(C)CC[C@]2(C(=O)O[C@@H]3O[C@H](CO)[C@@H](O)[C@H](O)[C@H]3O)CC[C@]3(C)C(=CC[C@@H]4[C@@]5(C)C[C@@H](O)[C@H](O)[C@@](C)(CO)[C@@H]5CC[C@]43C)[C@@H]2[C@@H]1O [Arjunglucoside-I, arjunglucoside-I]
Inhibitory Concentration (IC90) Caco-2 [2]: >50 µg/mL

Compound: O=C(O[C@H]1[C@@H]2OC(=O)c3cc(O)c(O)c(O)c3-c3c(O)c(O)c4oc(=O)c5c(c(O)c(O)c6oc(=O)c3c4c65)-c3c(cc(O)c(O)c3O)C(=O)OC[C@H]2OC(O)[C@@H]1O)c1cc(O)c(O)c(O)c1 (stereo partly drawn) [Arjunin]
IC50 [6]: 6500 µg/mL (≈ 6950 µM)
cytotoxic activity [6]: moderate cytotoxic activity

Compound: O=c1oc2c(O)c(O)cc3c(=O)oc4c(O)c(O)cc1c4c23 [Ellagic acid]
antimutagenic effect against 59-dependent 2AF [7]: quit effective
antimutagenic effect against NPD [7]: moderate effect

Compound: O=c1cc(-c2ccc(O)c(O)c2)oc2cc(O)cc(O)c12 [Luteolin]
activity against pathogenic bacteria (Neisseria gonorrhoeae): specific activity

Inhibitory Concentration (IC90) PA-1 [1]: 60 µg/mL
Inhibitory Concentration (IC90) MCF-7 ([5]; 90% inhibition of cell growth vs untreated control): >50 µg/mL
Compound: arjungenin
Inhibitory Concentration (IC90) Caco-2 [2]: 50 µg/mL
